Data reported in a melting point compilation (Tetko et al.; mined from patent text by program, amines drawn as free bases though some values may be those of a salt).

Question: Which melting point does the source give for `COc1ccc2c(c1)c(Cc1cc(=O)n(-c3ccccc3)[nH]1)c(C)n2C(=O)c1ccc(Cl)cc1` here?
Answer: Its melting point is 148 to 150 °C.

Question: For `Cc1cc(C)c2c(c1O)C(NCc1ccccc1)=C(c1ccccc1)C2`, which melting point is on record?
Answer: Its melting point is 214 to 215 °C.

Question: Which melting point does the source give for `CC(=O)[C@@H]1C/C=C(/C)C/C=C/[C@H](C)[C@H](O[Si](C)(C)C(C)(C)C)[C@@H](C)C(=O)C(C)(C)[C@@H](O[Si](C)(C)C(C)(C)C)CC(=O)O1` here?
Answer: Its melting point is 85 °C.

Question: For `CCc1nn(C2CCCC2)c2cc(C(=O)Nc3c(Cl)cccc3Cl)ccc12`, which melting point is on record?
Answer: Its melting point is 177 to 179 °C.

Question: For `Cc1nc(-n2cnn(CC3CC3(F)F)c2=O)sc1C(=O)O` (stereo unspecified), which melting point is on record?
Answer: The melting point was 220 to 222 °C.

Question: With `COc1cc2ncc(C#N)c(Nc3ccccc3C(N)=O)c2cc1OC` as the compound, how does the melting point read?
Answer: The melting point was 238 to 240 °C.

Question: With `Cc1nc2c(Cl)cc(Cl)cc2c(=O)n1C1CCC(=O)NC1=O` (stereo unspecified) as the compound, how does the melting point read?
Answer: Its melting point is 238 to 240 °C.

Question: Which melting point does the source give for `CC(=O)c1ccc2c(c1)ncn2-c1cccc(C(=NOC(C)C)OC2CCCN(C)C2)c1` (stereo unspecified) here?
Answer: Its melting point is 104 to 106 °C.

Question: Which melting point does the source give for `CC(C)(C)c1ccc2c(c1)C(=O)CC2` here?
Answer: The melting point was 94 to 96 °C.

Question: Which melting point does the source give for `CC(C)c1ccc(N(Cc2ccc(N(C)C)cc2)C(=O)C2CCCc3c(O)ccc(F)c32)cc1` (stereo unspecified) here?
Answer: The melting point was 209 °C.

Question: For `Cc1c(F)cccc1NN`, which melting point is on record?
Answer: Its melting point is 69 °C.

Question: With `Cc1ccc(S(=O)(=O)Nc2nc(-c3ccc(Cl)c(Cl)c3)cs2)cc1` as the compound, how does the melting point read?
Answer: Its melting point is 205 to 206 °C.

Question: For `COC(=O)c1cc(C(C)=O)cnc1C1=NC(C)(C(C)C)C(=O)N1` (stereo unspecified), which melting point is on record?
Answer: The melting point was 105 to 108 °C.

Question: Which melting point does the source give for `O=C(CCl)N(c1ccccc1)c1cccc(Cl)c1` here?
Answer: The melting point was 94 to 96.5 °C.

Question: With `CCSc1ccc(C(=O)NCc2ccc3c(c2)C(=O)N(C2CCC(=O)NC2=O)C3=O)nc1` (stereo unspecified) as the compound, how does the melting point read?
Answer: Its melting point is 198 to 200 °C.

Question: Which melting point does the source give for `CCOC(=O)Cc1csc(-c2ccccc2O)n1` here?
Answer: Its melting point is 35.5 to 36.5 °C.

Question: Which melting point does the source give for `O=C1NC2(CCC(F)(F)CC2)C(O)=C1c1cc(-c2ccc(Cl)cc2)ccc1Cl` here?
Answer: The melting point was 156 °C.

Question: With `Cc1ccc(COc2ncc(F)c(NC(=O)c3ccccc3)n2)cc1` as the compound, how does the melting point read?
Answer: The melting point was 93 to 95 °C.

Question: With `O=C(NC1CCN(CCCOc2ccc3ccc(=O)oc3c2)CC1)c1ccccc1` as the compound, how does the melting point read?
Answer: The melting point was 157 to 158 °C.

Question: For `Cc1ncsc1C(C)(O)c1ccoc1` (stereo unspecified), which melting point is on record?
Answer: The melting point was 102 to 104 °C.

Question: Which melting point does the source give for `Cc1ccccc1-c1nc(N)ncc1-c1ccc(=O)[nH]n1` here?
Answer: Its melting point is 313 °C.

Question: Which melting point does the source give for `CS(=O)(=O)c1ccc(C2=C(c3ccc(Cl)c(Cl)c3)CCC2)cc1` here?
Answer: The melting point was 100 to 101 °C.

Question: With `CC(C)(OCc1nn(Cc2ccccc2)c2ccccc12)C(=O)NNc1ccccc1` as the compound, how does the melting point read?
Answer: The melting point was 124 to 125 °C.

Question: Which melting point does the source give for `NC1=NS(=O)N=C1NCCCOc1cccc(CN2CCCCC2)n1` (stereo unspecified) here?
Answer: Its melting point is 145 to 147 °C.

Question: Which melting point does the source give for `CCOC(=O)CN(C)c1ccc(N=O)cc1` here?
Answer: Its melting point is 55 to 56 °C.

Question: Which melting point does the source give for `COC(=O)C1=C(C)NC(C)=C(C(=O)OCC(C)=O)C1c1cccc([N+](=O)[O-])c1` (stereo unspecified) here?
Answer: The melting point was 139 °C.

Question: Which melting point does the source give for `CCCCCCCCS(=O)c1ccc(CC(COC(C)=O)(COC(C)=O)NC(C)=O)cc1` (stereo unspecified) here?
Answer: Its melting point is 70 to 72 °C.

Question: Which melting point does the source give for `Nc1ccc(N2C(=O)c3ccc(Cl)cc3C2=O)c(CO)c1` here?
Answer: Its melting point is 228 to 230 °C.

Question: For `Cc1ccc(Oc2c(F)cc(C(F)(F)F)cc2Cl)cc1[N+](=O)[O-]`, which melting point is on record?
Answer: Its melting point is 113 to 115 °C.

Question: Which melting point does the source give for `COc1cc(N(C)C)cc(CN(C)CCc2ccc(N=C(N)c3cccs3)cc2)c1O` here?
Answer: The melting point was 91 to 93 °C.

Question: For `COc1ccccc1-n1c(=O)[nH]c2c(C(N)=O)nc(-c3cccc4[nH]ncc34)nc21`, which melting point is on record?
Answer: The melting point was 280 °C.

Question: For `CCOc1c(C)cc2c(c1C)C1(C)Cc3ccccc3C1=N2` (stereo unspecified), which melting point is on record?
Answer: The melting point was 164 °C.

Question: For `COc1ccc(F)cc1OCCNCCCc1c[nH]c2ccc(F)cc12`, which melting point is on record?
Answer: Its melting point is 119 to 122 °C.

Question: With `Cn1c(=O)n2nc(CO)cc2c2ccccc21` as the compound, how does the melting point read?
Answer: Its melting point is 183 to 184 °C.

Question: For `Nc1cccc2c1C(=O)c1c(N)cccc1C2=O`, which melting point is on record?
Answer: The melting point was 272 to 273 °C.

Question: Which melting point does the source give for `CCCOc1ccccc1C=C(C=O)C(C=O)=Cc1ccccc1OCCC` here?
Answer: The melting point was 109 to 110 °C.

Question: For `CC(=O)Nc1ccc(-c2cc(-c3nc4ccccc4c(=O)n3-c3cccc(C)c3)sc2N2CCOCC2)cc1`, which melting point is on record?
Answer: The melting point was over 275 °C.

Question: With `Clc1nc(Cl)nc(-c2cccn2Cc2ccccc2)n1` as the compound, how does the melting point read?
Answer: Its melting point is 150 to 151 °C.

Question: For `Cn1c(C(F)(F)F)cc(=O)[nH]c1=O`, which melting point is on record?
Answer: Its melting point is 140 to 142 °C.

Question: For `CCOC(=O)COc1cc(OCc2ccccc2)ccc1C(=O)CC`, which melting point is on record?
Answer: Its melting point is 81.5 to 82 °C.

Question: With `CCN1c2ccccc2NC(=S)c2cccnc21` as the compound, how does the melting point read?
Answer: The melting point was 194 to 196 °C.

Question: For `CSc1nc(-c2ccc(F)cc2)c(-c2ccnc(Nc3ccccc3)c2)[nH]1`, which melting point is on record?
Answer: The melting point was 228 °C.

Question: Which melting point does the source give for `CCCNC(=O)NNC=NC(=O)c1nc(Cl)c(N)nc1N` here?
Answer: The melting point was 220 to 221 °C.

Question: For `CCCC1COC(c2cc(F)c(C(F)(F)Oc3ccc(-c4cc(F)c(OC(F)(F)F)c(F)c4)c(F)c3)c(F)c2)OC1` (stereo unspecified), which melting point is on record?
Answer: The melting point was 61 °C.

Question: With `COc1cc(F)c(CNCCc2ccc(O)cc2)cc1O` as the compound, how does the melting point read?
Answer: The melting point was 160 to 162 °C.

Question: For `Nc1nc2ccccc2c2c1ncn2CCCCNC(=O)c1ccc2ncccc2c1`, which melting point is on record?
Answer: The melting point was 122 to 127 °C.

Question: Which melting point does the source give for `CCCCC(=O)NNC(=O)c1ccncc1` here?
Answer: The melting point was 162 °C.

Question: For `O=C1CC(O)CC(/C=C/c2ccc(Cl)c(Cl)c2)O1` (stereo unspecified), which melting point is on record?
Answer: The melting point was 92 to 94 °C.

Question: With `Clc1ccccc1-c1cnccn1` as the compound, how does the melting point read?
Answer: The melting point was 38 to 39 °C.

Question: For `CC(CCCCCOCCc1ccc(N(C)C)cc1)NCc1c(CO)ccc(O)c1CO` (stereo unspecified), which melting point is on record?
Answer: The melting point was 100 to 101 °C.

Question: Which melting point does the source give for `Cc1coc2c1C(=O)CC(c1ccccc1)C2` (stereo unspecified) here?
Answer: The melting point was 104 to 106 °C.

Question: For `Cc1cc(-n2cncn2)cc(C=O)c1N`, which melting point is on record?
Answer: Its melting point is 209 to 211 °C.

Question: Which melting point does the source give for `Cc1cc2c(c(N3CC[C@H](N(C)C)C3)c1-c1ccccc1)OC(C#N)(C(=O)N1CCCCC1)N2` (stereo partly specified) here?
Answer: Its melting point is 170 to 173 °C.

Question: For `CC(=O)Nc1ccc(S(=O)CC(=O)C23CC4CC(CC(C4)C2)C3)cc1` (stereo unspecified), which melting point is on record?
Answer: The melting point was 174 to 176 °C.

Question: Which melting point does the source give for `CCOC(=O)c1ccc2cc(-c3cc4ccccc4o3)ccn2c1=O` here?
Answer: The melting point was 195 to 197 °C.

Question: With `CNC(=O)c1cc2nc(C(F)(F)F)ccc2c(Cl)c1NC(=O)c1cc(C(F)(F)F)nn1-c1ncccc1Cl` as the compound, how does the melting point read?
Answer: The melting point was 235 to 237 °C.

Question: For `OCC12CC(c3ccccc31)c1ccccc12`, which melting point is on record?
Answer: The melting point was 165 to 166 °C.

Question: For `C=CCOc1ccc(OC2CCCCO2)c2c1NC(=O)CC2` (stereo unspecified), which melting point is on record?
Answer: The melting point was 111 to 113 °C.

Question: For `O=C(Nc1cc(C(F)(F)F)cc2c(Cl)ccnc12)c1c(Cl)cccc1Cl`, which melting point is on record?
Answer: The melting point was 150 to 157 °C.

Question: Which melting point does the source give for `CCn1cc(C(=O)O)c(=O)c2cc(F)c(N3CCC(NS(=O)(=O)c4ccc(N)cc4)C3)c(F)c21` (stereo unspecified) here?
Answer: Its melting point is 214 to 216 °C.

Question: For `O=C1CC2(CCCC2)CC(=O)N1c1ccncc1`, which melting point is on record?
Answer: The melting point was 208 to 211 °C.

Question: With `CON1C(=O)[C@H](Cc2c[nH]c3ccccc23)NC(=O)[C@@H]1CC(C)C` as the compound, how does the melting point read?
Answer: The melting point was 100 to 101 °C.

Question: With `CC(=O)SCC(Cc1ccccc1)C(=O)Nc1ccc(C(=O)O)c(Cl)c1` (stereo unspecified) as the compound, how does the melting point read?
Answer: The melting point was 145 to 148 °C.

Question: With `O=C1N(Cc2ccc(Cl)cc2)c2ccccc2C1(O)CC(F)(F)c1cccs1` (stereo unspecified) as the compound, how does the melting point read?
Answer: Its melting point is 121 to 123 °C.

Question: For `Fc1ccc(-c2cc(N3CCC(c4ncc[nH]4)CC3)c3sccc3n2)cc1`, which melting point is on record?
Answer: The melting point was 95 °C.

Question: Which melting point does the source give for `Cn1c(-c2ccccc2)c(C(=O)CCn2ccnc2)c2ccccc21` here?
Answer: The melting point was 159 to 162 °C.

Question: With `CNC(=O)C1=CN=C(N2CCN(C)CC2)CC1c1ccccc1C` (racemic) as the compound, how does the melting point read?
Answer: The melting point was 137 to 138 °C.

Question: With `S=P(SC1CCCCC1)(C1CCCCC1)C1CCCCC1` as the compound, how does the melting point read?
Answer: Its melting point is 82 to 85 °C.

Question: For `CC(=O)Nc1cc([N+](=O)[O-])ccc1CBr`, which melting point is on record?
Answer: The melting point was 188 to 189 °C.

Question: Which melting point does the source give for `CC(=O)c1ccc(NS(C)(=O)=O)c(Oc2ccc(F)cc2)c1` here?
Answer: The melting point was 95 to 96 °C.

Question: With `COCCOCCN1C(=O)C2(COc3cc4c(cc32)OCCO4)c2cc3c(cc21)OCCO3` (stereo unspecified) as the compound, how does the melting point read?
Answer: The melting point was 146 to 148 °C.
